The record followed here is patent US20040180855A1, “Methods of treating thrombosis with reduced risk of increased bleeding times” (priority 2003, published 2004).

The target of test [1] is T1, Recombinant tissue plasminogen activator (Homo sapiens, UniProt P00750).
T1 construct: purchased Genentech
Put plainly: Selectivity assay tissue plasminogen activator. The test is classed as biochemical. The following applies: Table 3.

The target in the next test is T2, Human FXIa (Homo sapiens, UniProt P03951).
T2 construct: purchased Enzyme Research Labs or Haematologic Technologies Inc
T2 sequence (P03951 388-625 limits assumed): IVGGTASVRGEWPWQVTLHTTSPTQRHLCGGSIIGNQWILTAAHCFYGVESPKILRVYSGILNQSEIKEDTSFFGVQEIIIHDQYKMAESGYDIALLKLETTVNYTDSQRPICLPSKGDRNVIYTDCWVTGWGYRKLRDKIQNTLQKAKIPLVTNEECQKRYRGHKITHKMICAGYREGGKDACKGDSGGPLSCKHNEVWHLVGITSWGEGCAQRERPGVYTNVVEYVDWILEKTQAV
T2 sequence (P03951 19-387 partner limits assumed): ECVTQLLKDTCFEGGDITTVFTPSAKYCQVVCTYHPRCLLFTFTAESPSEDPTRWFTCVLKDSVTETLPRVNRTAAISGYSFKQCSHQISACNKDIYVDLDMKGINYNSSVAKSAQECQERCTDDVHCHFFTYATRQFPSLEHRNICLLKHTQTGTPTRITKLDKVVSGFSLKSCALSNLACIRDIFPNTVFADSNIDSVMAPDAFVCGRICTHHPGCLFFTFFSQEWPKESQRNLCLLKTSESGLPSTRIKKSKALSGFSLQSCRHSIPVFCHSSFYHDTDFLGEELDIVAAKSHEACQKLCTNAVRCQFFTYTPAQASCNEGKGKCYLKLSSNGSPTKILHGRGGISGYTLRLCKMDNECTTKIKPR
The experiment in a line: FXIa enzymatic activity (chromogenic S-2366; fluorescent assay for high potency). Type of test: biochemical. The method, then: Human FXIa activity (Enzyme Research Labs or Haematologic Technologies Inc.) was measured at room temperature in 96 well microtiter plates. The enzyme was incubated with drug for 3 minutes at an enzyme concentration of 0.5 nM in 145 mM NaCl, 5 mM KCl, 1 mg/mL PEG 8000,30 mM HEPES (pH 7.4). After the three minute incubation, 100 μM substrate, S-2366, (L-Pyroglut-Pro-Arg-pNA, Diapharma Group, Inc.) was added and the enzyme velocity was measured using a Molecular Devices Spectro Max Plus (405 nm wavelength) in kinetic mode and analyzed using SOFTmax Pro (ver 3.0) software. For routine compound evaluation, the fraction of control activity (FCA) was plotted as a function of the inhibitor concentration (I), and the curve was fit to the equation FCA /(1+[I]/IC50) to determine the IC50.
A fluorescent assay was performed under similar conditions to evaluate FXIa activity of compounds with high potency (IC50<10 nM). A different substrate (D-Ile-Pro-Arg-AFC.2TFA) and a different concentration of enzyme (0.043 nM) was used. The enzyme velocity was measured using a Molecular Devices fMax fluorescent plate reader (400 nm excitation, 505 nm emission).

The next test relates to rat plasma (ex vivo PT). The experiment in a line: Ex vivo clotting time PT. The settings on record: loading plus sustaining i.v. infusion. Type of test: in vivo. As to the method:
Ex Vivo Clotting Times Ex vivo clotting time assays were used to determine the level of anticoagulation achieved in the thrombosis and bleeding time procedures, described above. A small organic compound for inhibiting Factor XIa was administered at doses (mg/kg+mg/kg/hr) of 0.5+0.5 (n=3), 2+2 (n=4), 6+6 (n=3), 12+12 (n=3) and 24+24 (n=10). Carotid artery blood (0.6 mL drawn into 1/10 volume of 3.8% Na-citrate) was sampled before (0 min control) and at 5, 15, 30, 60 and 90 min after the start of the compound infusion. The APTT was determined in freshly prepared plasma from each sample using the standard procedure for Dade Actin FSL reagent (Baxter Healthcare Corp., Miami, Fla.). The PT was determined in some animals from the 6+6 (n=3), 12+12 (n=3) and 24+24 (n=2) dose groups using Dade Thromboplastin●C reagent.
Plasma was sampled before (0 min control) and after the infusion, at intervals of 5, 15, 30, 60 and 90 min after initiating the infusion. Average APTT increases over the 15-90 min period, an interval most applicable to thrombosis and bleeding time protocols, were calculated. Control APTT values averaged 19.9±1.3 seconds overall. The PT was unaltered as expected from in vitro results. […] The range of efficacious doses in venous and arterial thrombosis (2+2, 6+6, 12+12; mg/kg+mg/kg/hr) produced an APTT increase of about 2.8 times control.

SMILES strings stand for the structures. pIC50: −log10 of the molar value. Where two headings read alike, the source gives them in different places.

T1 sequence (P00750 36-562): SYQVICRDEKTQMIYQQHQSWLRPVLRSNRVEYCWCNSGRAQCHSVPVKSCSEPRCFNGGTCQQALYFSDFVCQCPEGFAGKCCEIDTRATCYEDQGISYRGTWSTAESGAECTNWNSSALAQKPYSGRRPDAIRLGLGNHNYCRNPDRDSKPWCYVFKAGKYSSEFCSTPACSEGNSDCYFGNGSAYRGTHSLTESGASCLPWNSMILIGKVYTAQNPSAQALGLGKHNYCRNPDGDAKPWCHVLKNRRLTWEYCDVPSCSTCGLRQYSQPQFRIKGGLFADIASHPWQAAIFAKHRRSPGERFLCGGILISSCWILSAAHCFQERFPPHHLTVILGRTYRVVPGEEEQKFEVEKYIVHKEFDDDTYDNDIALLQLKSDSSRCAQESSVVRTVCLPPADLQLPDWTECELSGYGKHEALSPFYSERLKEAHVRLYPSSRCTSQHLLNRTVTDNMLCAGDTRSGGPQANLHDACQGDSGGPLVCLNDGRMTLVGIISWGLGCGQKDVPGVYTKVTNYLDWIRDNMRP

Regarding `CC(C)(C)NC(=O)N1CCN(C(=O)N2C(=O)[C@H](CCCNC(=N)N)[C@H]2C(=O)O)CC1` [Example 4], the IC50 (usually the concentration that inhibits the measured activity by half) in test [1] is > 33 µM. Also, at Human FXIa (Table 1, Factor XIa, approximate, read-out: IC50(≅)), the pIC50 (usually the negative decadic logarithm of the IC50, by convention in mol/L) is ~8.55. Moreover, on Human FXIa (Table 3, read-out: IC50 (μM) FXIa), the IC50 was found to be 0.0028 µM. In addition, on Human FXIa (from Table 3 IC50 values), the “times more active than the FXa inhibitor for inhibiting Factor XIa” value was “more than 10,000 times” and the “times more active than the thrombin inhibitor (compound 16A) for inhibiting Factor XIa” value is reported as “greater than 2,000 times”. Further, in the test on rat plasma (ex vivo PT), the “effect on ex vivo PT” value was “unaltered”.
